Test results taken from US20210290648A1, “Potentiation of B-Lactam Antibiotics and B-Lactam/B-Lactamase Inhibitor Combinations Against Multidrug and Extensively Drug-Resistant Pseudomonas Aeruginosa Using Non-Ribosomal Tobramycin-Cyclam Conjugates” (University of Manitoba, priority 2018, published 2021).

How the values were obtained:
PA 100036 = experiment: Checkerboard combination study / MIC; assay type: cell-based, Pseudomonas aeruginosa; settings: for MICCombination (antibiotic): MIC of antibiotic combined with compound 2; for FICI: antibiotic + compound 2; for MICAntibiotic: antibiotic alone; for FICAntibiotic: with compound 2
PA 101243 = experiment: Checkerboard combination study / MIC; assay type: cell-based, Pseudomonas aeruginosa; settings: PA 101243; for MICCombination (antibiotic): MIC of antibiotic combined with compound 2; for FICI: antibiotic + compound 2; for MICAntibiotic: antibiotic alone
PAO200 = assay type: cell-based, Pseudomonas aeruginosa; settings: for MIC of antibiotic alone in PAO200: PAO200 efflux-deficient
Text: (§1) PAO200 is a tnexA-rnexB-oprM deletion strain while PAO750 lacks five important RND pumps (McxAB-OprM, MexCD-OprJ, MexEF-OprN, Mex JK, and MexXY) and the outer membrane protein OpmH (46, 47). Some of these pumps are homologues of broad substrate specificities that extrude different classes of antimicrobial agents and confer resistance on P. aeruginosa (48).
(§2) Antimicrobial Susceptibility Assay. The in vitro antimicrobial activity of all compounds/antibiotics against a panel of bacteria was evaluated by microbroth dilution method in accordance with the Clinical and Laboratory Standards Institute (CLSI) guidelines. Overnight grown bacterial cultures were diluted in saline to achieve a 0.5 McFarland turbidity, followed by 1:50 dilution in Mueller-Hinton broth (MHB) for inoculation to a final concentration of approximately 5×10^5CFU/mL. The antimicrobial agents were 2-fold serially diluted in MHB in a 96-well plate and incubated at 37° C. with equal volumes of inoculum for 18 h. The lowest concentration that prevented the visible growth of bacteria was defined as the MIC for each antimicrobial agent. The broth with or without bacterial cells was used as positive or negative control, respectively.
(§3) Checkerboard Assay. Combination studies with different antibiotics were performed in 96-well plates as previously described (22). Briefly, the antibiotic of interest was serially diluted in MHB along the abscissa while the adjuvant (newly synthesized conjugates) was serially diluted in MHB along the ordinate. This creates a 10×7 matrix wherein each well consists of a combination of different antibiotic and adjuvant concentrations. Overnight grown bacterial cultures were diluted in saline to achieve a 0.5 McFarland turbidity, followed by 1:50 dilution in Mueller-Hinton broth (MHB) for inoculation to a final concentration of approximately 5×10^5CFU/mL. Equal volume of this bacterial culture was then added to each well and incubated at 37° C. for 18 h. After incubation, the plates were read on EMax® Plus microplate reader (Molecular Devices, Sunnyvale, Calif., USA) at 590 nm. MIC was recorded as wells with the lowest concentration of drugs with no bacterial growth. The fractional inhibitory concentration (FIC) for each antibiotic was calculated by dividing the MIC of the antibiotic in the presence of adjuvant by the MIC of the antibiotic alone. Similarly, the FIC of adjuvant was calculated by dividing the MIC of the adjuvant in the presence of antibiotic by the MIC of the adjuvant alone. FIC index is the sum of both FICs. FIC indices of <0.5 were deemed synergistic; 0.5-4, no interaction; and >4, antagonistic.

PAO750 = assay type: cell-based, Pseudomonas aeruginosa; settings: for MIC of antibiotic alone in PAO750: PAO750 efflux-deficient
Text: as §1, §2, §3

MDR PA108590 = experiment: Time-kill assay, triple combination; assay type: cell-based, Pseudomonas aeruginosa; settings: 16 μg/mL, i.e. half MIC; MDR PA108590
[1] = tested on: MDR PA108590-challenged larvae; experiment: Galleria mellonella infection model, efficacy; assay type: in vivo; settings: ceftazidime 1.56 mg/kg single dose
Text: In vivo larvae-infection model.

PA108590 = experiment: MIC / triple combination susceptibility; assay type: cell-based, Pseudomonas aeruginosa; settings: Pseudomonas aeruginosa; P. aeruginosa 108590; FIG. 8 legend
Text: The diazabicyclooctane β-lactamase inhibitor, avibactam, is able to inhibit a wide range of serine β-lactamases (class A, C, and D) but not metallo-β-lactamases (class B) (50, 51).^50,51 However, the high concentration of avibactam required to neutralize the effects of β-lactamase enzymes in these phenotypes is indicative of concomitant permeability barriers in the isolates, such as reduced porin uptake. […] The results of this study are shown in (FIG. 6). All isolates were resistant to all three β-lactam antibiotics used for the study. […] As expected, the study with meropenem was slightly different from others.
Antimicrobial Susceptibility Assay. The in vitro antimicrobial activity of all compounds/antibiotics against a panel of bacteria was evaluated by microbroth dilution method in accordance with the Clinical and Laboratory Standards Institute (CLSI) guidelines. […]
Checkerboard Assay. […] After incubation, the plates were read on EMax® Plus microplate reader (Molecular Devices, Sunnyvale, Calif., USA) at 590 nm. MIC was recorded as wells with the lowest concentration of drugs with no bacterial growth. The fractional inhibitory concentration (FIC) for each antibiotic was calculated by dividing the MIC of the antibiotic in the presence of adjuvant by the MIC of the antibiotic alone. […]

MDR PA101885 = experiment: Time-kill assay; assay type: cell-based, Pseudomonas aeruginosa
Method: (§4) Time-kill curves typically reveal the kinetics of bacterial growth and death, with respect to time, at different antimicrobial concentrations. An antibiotic could either be bactericidal or bacteriostatic under specific growth conditions. Bactericidal activity is defined as a ≥3-log reduction in the total CFU/mL from the original inoculum over 24 hours while bacteriostatic activity is defined as maintenance of <3-log reduction in the total CFU/mL from the original inoculum (44). […] Growth curves were initially performed to ensure that strains will reach a stable early- to mid-log phase after 4 h of pre-incubation in antimicrobial-free LB medium.
(§5) Time-kill assay. Time-kill curve analyses were performed by culturing P. aeruginosa in LB medium, in the presence of antibiotics alone and in combination with test adjuvants. MICs of antibiotics and adjuvants were determined before the experiment following CLSI microbroth dilution guidelines. Growth curves were initially performed to confirm that all strains will reach a stable early- to mid-log phase after 4 h of pre-incubation in antimicrobial-free LB medium. A 0.5 McFarland inoculum of each strain was prepared in sterile 0.85% saline solution from an overnight grown culture. For each strain, 30 μl of the prepared inoculum was diluted to 3 ml of LB broth (containing different combinations of antimicrobial agents and adjuvants) and incubated at 37° C. shaking at 250 rpm. At specific time intervals (0, 1, 3, 6, 9, and 24 h), 100 μl was taken from each sample, serially diluted in sterile PBS, plated on LB agar plates, and incubated at 37° C. in a humid 5% CO2-enriched atmosphere. Bacteria colonies were counted after 20 h of incubation.

[2] = tested on: wild type P. aeruginosa PAO1; experiment: Time-kill assay; assay type: cell-based, Pseudomonas aeruginosa; settings: WT PAO1
Method: as §4, §5

Row | SMILES | MICCombination (antibiotic) (PA 100036) [µg/mL] | FICI (PA 100036) | MICAntibiotic (PA 100036) [µg/mL] | FICAntibiotic (PA 100036) | MICCombination (antibiotic) (PA 101243) [µg/mL] | FICI (PA 101243) | MICAntibiotic (PA 101243) [µg/mL] | MIC of antibiotic alone in PAO200 (PAO200) [µg/mL] | MIC of antibiotic alone in PAO750 (PAO750) [µg/mL] | also measured
1 | CC(C)(O/N=C(\C(=O)N[C@@H]1C(=O)N2C(C(=O)[O-])=C(C[n+]3ccccc3)CS[C@H]12)c1csc(N)n1)C(=O)O [Ceftazidime] | 2 | <0.28 | 8 | 0.250 | 8 | <0.13 | 64 | 2 | 1 | time-kill effect, alone (MDR PA108590): bactericidal effects after 3 h; survival of larvae ([1]; after 24 h): 50%; survival of larvae ([1]; after 36 h): 10%; MIC (PA108590): 0.032 µg/mL
2 | C[C@@H](O)[C@H]1C(=O)N2C(C(=O)O)=C(S[C@@H]3CN[C@H](C(=O)N(C)C)C3)[C@H](C)[C@H]12 [Meropenem] | 2 | <0.51 | 4 | 0.500 | 2 | <0.25 | 8 | 0.25 | 1 | FICAntibiotic (PA 101243; with compound 2): 0.250; MIC of antibiotic + Compound 2 in PAO200 (PAO200; + compound 2 ≤8.7 μM, PAO200): 0.063 µg/mL; fold change of MIC + Compound 2 in PAO200 (PAO200; + compound 2 ≤8.7 μM, PAO200): 4; MIC of antibiotic + Compound 2 in PAO750 (PAO750; + compound 2 ≤8.7 μM, PAO750): 0.25 µg/mL; fold change of MIC + Compound 2 in PAO750 (PAO750; + compound 2 ≤8.7 μM, PAO750): 4; interaction with compound 2 in time-kill (MDR PA101885; 24 h): synergistic; time-kill effect, antibiotic + compound 2 (MDR PA101885; CLSI breakpoint concentration + 4.4 μM or 8.7 μM compound 2, after about 6 h): strongly bactericidal; time-kill effect, antibiotic alone (MDR PA101885; at CLSI breakpoint concentration (aztreonam 8 μg/mL, meropenem 2 μg/mL)): bacteriostatic effect; interaction with compound 2 in time-kill ([2]; 24 h): indifferent; time-kill effect, antibiotic alone ([2]; at MIC (aztreonam 4 μg/mL, meropenem 1 μg/mL)): time-dependent bactericidal effect
